Legend:
[1] = target: T1, Corticotropin-releasing factor receptor 1 (Rattus norvegicus, UniProt P35353); assay: Displacement of [125I]Tyr-ovine-CRF from CRF1 receptor in rat frontal cortex homogenate after 2 hrs by gamma counting analysis; type: tissue-based
T1 sequence (P35353 whole entry): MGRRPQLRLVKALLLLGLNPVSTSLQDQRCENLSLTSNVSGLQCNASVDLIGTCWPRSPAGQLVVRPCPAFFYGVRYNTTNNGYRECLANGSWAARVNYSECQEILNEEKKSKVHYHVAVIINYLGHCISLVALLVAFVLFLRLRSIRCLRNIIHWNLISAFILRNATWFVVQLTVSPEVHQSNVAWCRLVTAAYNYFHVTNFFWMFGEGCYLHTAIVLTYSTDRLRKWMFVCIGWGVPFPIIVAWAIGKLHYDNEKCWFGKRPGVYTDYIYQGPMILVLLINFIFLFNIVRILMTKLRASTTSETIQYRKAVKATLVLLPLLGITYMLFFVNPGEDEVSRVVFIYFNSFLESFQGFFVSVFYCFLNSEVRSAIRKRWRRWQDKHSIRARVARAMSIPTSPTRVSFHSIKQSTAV

[2] = Metabolic stability in human liver microsomes assessed as compound remaining after 10 mins; type: ADME; conditions: read-out: Stability
[3] = Metabolic stability in rat liver microsomes assessed as compound remaining after 10 mins; type: ADME; conditions: read-out: Stability
[4] = target: T2, Corticotropin-releasing factor receptor 1 (Homo sapiens) (UniProt P34998); assay: (§1) Antagonist activity at CRF1 receptor in human Y79 cells assessed as inhibition of CRF-stimulated cAMP production preincubated for 30 mins followed by CRF addition measured after 30 mins by HTRF assay; type: functional, cell-based
T2 sequence (whole entry): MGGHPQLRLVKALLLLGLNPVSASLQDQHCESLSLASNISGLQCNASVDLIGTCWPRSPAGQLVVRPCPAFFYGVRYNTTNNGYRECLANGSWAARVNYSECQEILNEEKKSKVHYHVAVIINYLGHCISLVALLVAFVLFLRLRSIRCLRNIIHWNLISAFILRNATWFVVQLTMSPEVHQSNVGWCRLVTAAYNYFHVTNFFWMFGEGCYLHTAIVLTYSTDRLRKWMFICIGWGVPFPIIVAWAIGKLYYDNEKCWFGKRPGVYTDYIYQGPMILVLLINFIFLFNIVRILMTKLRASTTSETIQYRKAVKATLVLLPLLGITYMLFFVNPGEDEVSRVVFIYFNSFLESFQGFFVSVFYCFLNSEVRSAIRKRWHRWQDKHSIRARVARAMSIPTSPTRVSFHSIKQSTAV

[5] = target: T3, Corticotropin-releasing factor receptor 1 (Homo sapiens, UniProt P34998); assay: as §1; type: functional, cell-based
T3 sequence (P34998 whole entry): T2 sequence (whole entry)

| IC50 [1] [nM] | SMILES | other results |
| --- | --- | --- |
| 88 | COc1nc(C)c(Nc2nc(Cl)cn([C@H](CO)C3CC3)c2=O)cc1C |  |
| 1.6 | COc1nc(C)c(Nc2nc(Cl)cn([C@H](COC(=O)Nc3ccc(Cl)cc3)C3CC3)c2=O)cc1C |  |
| 1.2 | COc1nc(C)c(Nc2nc(Cl)cn([C@H](COc3ccccn3)C3CC3)c2=O)cc1C |  |
| 1.5 | COc1nc(C)c(Nc2nc(Cl)cn([C@H](COC(=O)Nc3ccccc3Cl)C3CC3)c2=O)cc1C |  |
| 10 | CCCNC(=O)OC[C@H](C1CC1)n1cc(Cl)nc(Nc2cc(C)c(OC)nc2C)c1=O |  |
| 5.3 | COc1nc(C)c(Nc2nc(Cl)cn([C@H](COC(C)=O)C3CC3)c2=O)cc1C |  |
| 1.5 | COc1nc(C)c(Nc2nc(Cl)cn([C@H](COC(=O)Nc3ccccc3)C3CC3)c2=O)cc1C | remaining at 10 min [2]: 32%; remaining at 10 min [3]: 33% |
| 67 | COc1nc(C)c(Nc2nc(Cl)cn([C@H](COC(=O)c3ccccn3)C3CC3)c2=O)cc1C |  |
| 7.7 | COc1nc(C)c(Nc2nc(Cl)cn([C@H](COc3ccc(C#N)cn3)C3CC3)c2=O)cc1C |  |
| 1.5 | COc1nc(C)c(Nc2nc(Cl)cn([C@H](COC(=O)c3ccccc3)C3CC3)c2=O)cc1C |  |
| 1.5 | COc1nc(C)c(Nc2nc(Cl)cn([C@H](COc3cc(Br)ccn3)C3CC3)c2=O)cc1C |  |
| 1.6 | COc1nc(C)c(Nc2nc(Cl)cn([C@H](COc3ccc(C(F)(F)F)cn3)C3CC3)c2=O)cc1C |  |
| 6.8 | COc1nc(C)c(Nc2nc(Cl)cn([C@H](COc3cc(C#N)ccn3)C3CC3)c2=O)cc1C |  |
| 1.7 | COc1nc(C)c(Nc2nc(Cl)cn([C@H](COC(=O)Nc3cc(Cl)cc(Cl)c3)C3CC3)c2=O)cc1C |  |
|  | Cc1cc(Nc2nc(Cl)cn([C@H](COC(=O)Nc3ccccc3)C3CC3)c2=O)c(C)nc1OC(F)F | inhibition [4]: Dose-dependent effect; IC50 [5]: 1.2 nM; remaining at 10 min [2]: 77%; remaining at 10 min [3]: 75% |
| 14 | CCNC(=O)OC[C@H](C1CC1)n1cc(Cl)nc(Nc2cc(C)c(OC)nc2C)c1=O |  |
| 1.7 | COc1nc(C)c(Nc2nc(Cl)cn([C@H](COC(=O)Nc3ccc(Cl)cc3Cl)C3CC3)c2=O)cc1C |  |
| 1.9 | Cc1cc(Nc2nc(Cl)cn([C@H](COC(=O)Nc3cccnc3)C3CC3)c2=O)c(C)nc1OC(F)F | remaining at 10 min [2]: 71%; remaining at 10 min [3]: 52% |
| 4.9 | COc1nc(C)c(Nc2nc(Cl)cn([C@H](COC(=O)c3ccncc3)C3CC3)c2=O)cc1C |  |
| 9.2 | COc1ccc(NC(=O)OC[C@H](C2CC2)n2cc(Cl)nc(Nc3cc(C)c(OC)nc3C)c2=O)c(C)n1 |  |
| 6.7 | COc1nc(C)c(Nc2nc(Cl)cn([C@H](COc3cccnc3)C3CC3)c2=O)cc1C |  |
| 5.2 | COc1nc(C)c(Nc2nc(Cl)cn([C@H](COC(=O)c3cccnc3)C3CC3)c2=O)cc1C |  |
| 10 | COc1nc(C)c(Nc2nc(Cl)cn([C@H](COC(=O)Nc3cccnc3)C3CC3)c2=O)cc1C | remaining at 10 min [2]: 36%; remaining at 10 min [3]: 35% |
| 0.29 | COC[C@H](C1CC1)n1cc(Cl)nc(Nc2cc(C)c(OC(F)F)nc2C)c1=O |  |
| 1.3 | COc1nc(C)c(Nc2nc(Cl)cn([C@H](COC(=O)Nc3cccc(C#N)c3)C3CC3)c2=O)cc1C |  |

From ChEMBL document CHEMBL3797145, “Synthesis and evaluation of carbamate and aryl ether substituted pyrazinones as corticotropin releasing factor-1 (CRF₁) receptor antagonists” (Bioorg Med Chem Lett, 2016)
